What was measured:
HP1βT51P levels = assay: anti-HP1βT51P detection in cell extracts; format: cell-based
EGFP-HP1β = assay: FRAP dynamics of EGFP-HP1β in living cells; format: cell-based, mouse; conditions: preexposure to 75 μM TBB (FIG. 20)
Procedure: MEFs were seeded in 2-well Lab-Tek chambers (Nunc) after transfection with the EGFP-HP1β construct. Before imaging, growth medium was replaced with phenol-red free L15 imaging medium. Live cell imaging and photobleaching experiments were performed using a 40× 1.2 NA water immersion lens on a Zeiss LSM 510 Meta confocal microscope (using a heating chamber to maintain the cells at […]) with the 488 nm line of an Argon laser operating at 6.1 A.
FRAP analysis was performed by a method previously established in our lab 27. For low-bleach FRAP (see FIG. S1), selected regions of HC and EC were simultaneously bleached in a diffraction-limited spot with a pulse of 2 iterations at 100% of the […] Ar laser. Post-bleach images were acquired at a lower frequency of an image every 400 msec. Image bleach was corrected separately for EC and HC regions using a nearby unbleached cell. For high-bleach FRAP experiments, photobleaching was with 35 iterations at the same laser output, and images were collected every 290 msec. The normalized curves were plotted in GraphPad Prism, and recovery curves were fitted to a single order exponential equation Y=Ymax*(1−exp(−K*X)) to yield a recovery constant K; shown to be different among groups by the sum of squares f-test at p<0.05.

γH2AX = γH2AX foci formation / staining in MEFs after IR; format: cell-based, mouse
Procedure: Cell staining and immunofluorescence analyses were carried out as described previously^2. Briefly, transfected and untransfected cells were grown on coverslips and subjected to different treatments as indicated in the text prior to fixation. Cells were fixed using 4% formaldehyde for 10-15 min, followed by solubilisation and blocking with 3% BSA in 1×PBS, 0.05% Tween-20, 0.05% Triton. Imaging was performed on a Zeiss LSM510 Meta confocal microscope, using a 40× objective with fixed optical slice, laser power and detector/amplifier settings for all samples across each individual experiment to allow comparison. Quantitative analysis for HP1βT51P and γH2AX staining was performed using mean per-nucleus intensity to avoid any discrepancy in the definition or counting of foci. This was performed on identically stained and imaged samples by estimation of raw pixel intensity values for a defined number of cells, specified for each experiment, through the Zeiss LSM software, and comparison of the different groups by one-way ANOVA and Dunnet's post test. […] The plates were imaged and analyzed using a Cellomics high content screening microscope, using a 40× non-immersion objective. […] 500 cells were analysed per well, and standard errors calculated from an average of the means of 8 wells.

SMILES | HP1βT51P levels detected by anti-HP1βT51P in cell extracts (HP1βT51P levels; TBB at 75 μM for 6 hrs, with and without etoposide) | changes in FRAP dynamics of EGFP-HP1β triggered by DNA damage (EGFP-HP1β) | γH2AX foci formation (γH2AX; MEFs pre-exposed to 75 μM TBB, 5 min after 3 Gy IR) | pixel intensity of γH2AX staining after damage (γH2AX; TBB preexposure, n=20 per sample, p<0.01) | HP1βT51P species detected by anti-HP1βT51P in cell extracts (HP1βT51P levels; etoposide treatment)
Brc1c(Br)c(Br)c2[nH]cnc2c1Br [TBB, 4,5,6,7-tetrabromo-benzimidazole] | diminishes both the background detection and etoposide-induced enhancement of HP1βT51P levels | suppresses in living cells the changes in FRAP dynamics | suppresses γH2AX foci formation | reduced in a dose-dependent manner | –
COc1cc([C@@H]2c3cc4c(cc3[C@@H](O[C@@H]3O[C@@H]5CO[C@@H](C)O[C@H]5[C@H](O)[C@H]3O)[C@H]3COC(=O)[C@H]23)OCO4)cc(OC)c1O [etoposide] | – | – | – | – | enhanced in a dose-dependent manner

Source: patent US8021851B2, “Thr51 phosphorylated HP 1β protein for the assessment of DNA damage” (Cambridge Enterprise Limited, priority 2009, dated 2011)
